ChEMBL document CHEMBL3352163, “Anthracene-9, 10-dione derivatives induced apoptosis in human cervical cancer cell line (CaSki) by interfering with HPV E6 expression” (Eur J Med Chem, 2014)
Active and inactive are the calls of the source. No cut-off for these calls is given here.

Assays:
[1] = Cytotoxicity against human KATO III cells after 72 hrs by MTT assay; type: functional, cell-based, KATO III cell
[2] = Cytotoxicity against human ChaGo cells after 72 hrs by MTT assay; type: functional, cell-based
HepG2 [3] = experiment: Cytotoxicity against human HepG2 cells after 72 hrs by MTT assay; type: functional, cell-based; details: HepG2, 72 h
[4] = Cytotoxicity against human WI38 cells after 72 hrs by MTT assay; type: cell-based; details: WI-38, 72 h
HepG2 [5] = experiment: Cytotoxicity against human HepG2 cells at 10 uM after 72 hrs by MTT assay; type: functional
[6] = Cytotoxicity against human CaSki cells at 10 uM after 72 hrs by MTT assay; type: functional, Ca-Ski
[7] = Cytotoxicity against human KATO III cells at 10 uM after 72 hrs by MTT assay; type: functional, KATO III cell
[8] = Cytotoxicity against human ChaGo cells at 10 uM after 72 hrs by MTT assay; type: functional
SW-620 = experiment: Cytotoxicity against human SW620 cells at 10 uM after 72 hrs by MTT assay; type: functional
Ca-Ski [9] = experiment: Cytotoxicity against human CaSki cells at 10 uM in presence of glutathione relative to control; type: functional, cell-based
Ca-Ski [10] = experiment: Induction of apoptosis in human CaSki cells by DAPI staining-based fluorescence microscopy; type: functional, cell-based
Ca-Ski [11] = experiment: Inhibition of colony formation in human CaSki cells at 5 uM after 24 hrs by crystal violet staining-based fluorescence microscopy; type: functional, cell-based
[12] = Cell cycle arrest in human CaSki cells assessed as accumulation at G0 phase at 0.3 uM after 24 hrs by propidium iodide staining-based FACS analysis (reference value: 1.5%); type: functional; details: Ca-Ski
[13] = Cell cycle arrest in human CaSki cells assessed as accumulation at G0 phase at 1.5 uM after 24 hrs by propidium iodide staining-based FACS analysis (reference value: 1.5%); type: functional; details: Ca-Ski
[14] = Cell cycle arrest in human CaSki cells assessed as accumulation at G0 phase at 3 uM after 24 hrs by propidium iodide staining-based FACS analysis (reference value: 1.5%); type: functional; details: Ca-Ski
[15] = Cell cycle arrest in human CaSki cells assessed as accumulation at G1 phase at 0.3 uM after 24 hrs by propidium iodide staining-based FACS analysis (reference value: 61.3%); type: functional; details: Ca-Ski
[16] = Cell cycle arrest in human CaSki cells assessed as accumulation at G1 phase at 1.5 uM after 24 hrs by propidium iodide staining-based FACS analysis (reference value: 61.3%); type: functional; details: Ca-Ski
[17] = Cell cycle arrest in human CaSki cells assessed as accumulation at G1 phase at 3 uM after 24 hrs by propidium iodide staining-based FACS analysis (reference value: 61.3%); type: functional; details: Ca-Ski
[18] = Cell cycle arrest in human CaSki cells assessed as accumulation at S phase at 0.3 uM after 24 hrs by propidium iodide staining-based FACS analysis (reference value: 14.1%); type: functional; details: Ca-Ski
[19] = Cell cycle arrest in human CaSki cells assessed as accumulation at S phase at 1.5 uM after 24 hrs by propidium iodide staining-based FACS analysis (reference value: 14.1%); type: functional; details: Ca-Ski
[20] = Cell cycle arrest in human CaSki cells assessed as accumulation at S phase at 3 uM after 24 hrs by propidium iodide staining-based FACS analysis (reference value: 14.1%); type: functional; details: Ca-Ski
[21] = Cell cycle arrest in human CaSki cells assessed as accumulation at G2/M phase at 0.3 uM after 24 hrs by propidium iodide staining-based FACS analysis (reference value: 18.0%); type: functional; details: Ca-Ski
[22] = Cell cycle arrest in human CaSki cells assessed as accumulation at G2/M phase at 1.5 uM after 24 hrs by propidium iodide staining-based FACS analysis (reference value: 18.0%); type: functional; details: Ca-Ski
[23] = Cell cycle arrest in human CaSki cells assessed as accumulation at G2/M phase at 3 uM after 24 hrs by propidium iodide staining-based FACS analysis (reference value: 18.0%); type: functional; details: Ca-Ski
[24] = Cell cycle arrest in human CaSki cells assessed as accumulation at G2/M phase after 24 hrs by propidium iodide staining-based FACS analysis; type: functional; details: Ca-Ski
Ca-Ski [25] = experiment: Induction of apoptosis in human CaSki cells carrying HPV assessed as reduction of E6 mRNA expression at 0.3 uM after 24 hrs by RT-PCR analysis; type: functional, cell-based
Ca-Ski [26] = experiment: Induction of apoptosis in human CaSki cells carrying HPV assessed as inhibition of Bcl-2 protein expression at 0.3 uM after 24 hrs by Western blotting analysis; type: functional, cell-based
Ca-Ski [27] = experiment: Induction of apoptosis in human CaSki cells carrying HPV assessed as increase in p53 protein expression after 24 hrs by Western blotting analysis; type: functional, cell-based
Ca-Ski [28] = experiment: Induction of apoptosis in human CaSki cells carrying HPV assessed as increase in procaspase-3 protein expression after 24 hrs by Western blotting analysis; type: functional, cell-based
Ca-Ski [29] = experiment: Induction of apoptosis in human CaSki cells carrying HPV assessed as downregulation of Akt phosphorylation after 24 hrs by Western blotting analysis; type: functional, cell-based
[30] = Cytotoxicity against human CaSki cells after 72 hrs by MTT assay; type: functional, cell-based; details: Ca-Ski

Compound: Cc1ccc(S(=O)(=O)Oc2ccc(NCc3ccccc3)c3c2C(=O)c2ccccc2C3=O)cc1
- IC50 [1]: > 5.7 µM
- IC50 [2]: > 5.7 µM
- IC50 (HepG2 [3]): > 5.7 µM
- IC50 [4]: > 10 µM
- Activity (HepG2 [5]): 40.5%
- Activity [6]: 84.5%
- Activity [7]: 41.5%
- Activity [8]: 39.8%
- Activity (SW-620): 49.1%
- Activity (Ca-Ski [9]): Active
- Activity (Ca-Ski [10]): Dose-dependent effect
- inhibition (Ca-Ski [11]): Active
- Activity [12]: 1.9%
- Activity [13]: 11%
- Activity [14]: 10.9%
- Activity [15]: 62%
- Activity [16]: 31.7%
- Activity [17]: 12.4%
- Activity [18]: 12.6%
- Activity [19]: 13.7%
- Activity [20]: 14.2%
- Activity [21]: 19.5%
- Activity [22]: 33.8%
- Activity [23]: 46.2%
- Activity [24]: Dose-dependent effect
- Activity (Ca-Ski [25]): Active
- inhibition (Ca-Ski [26]): Active
- Activity (Ca-Ski [27]): Active
- Activity (Ca-Ski [28]): Active
- Activity (Ca-Ski [29]): Dose-dependent effect

Compound: Cc1ccc(S(=O)(=O)Oc2ccc(NCCN3CCOCC3)c3c2C(=O)c2ccccc2C3=O)cc1
- Activity (HepG2 [5]): 11.1%
- Activity [6]: 42.8%
- Activity [7]: 29.3%
- Activity [8]: 4.9%
- Activity (SW-620): 19.4%

Compound: Cc1ccc(S(=O)(=O)Oc2ccc(OS(=O)(=O)c3ccc(C)cc3)c3c2C(=O)c2ccccc2C3=O)cc1
- Activity (HepG2 [5]): 11.9%
- Activity [6]: 36.4%
- Activity [7]: 31.1%
- Activity [8]: 5.8%
- Activity (SW-620): 22.2%

Compound: O=C1c2ccccc2C(=O)c2c(O)ccc(O)c21 [QUINIZARIN]
- IC50 [30]: > 10 µM
- Activity (HepG2 [5]): 5.6%
- Activity [6]: 48.6%
- Activity [7]: 38.4%
- Activity [8]: 12.3%
- Activity (SW-620): 21.1%

Compound: Cc1ccc(S(=O)(=O)Oc2ccc(N3CCOCC3)c3c2C(=O)c2ccccc2C3=O)cc1
- Activity (HepG2 [5]): 6.1%
- Activity [6]: 43.8%
- Activity [7]: 35.3%
- Activity [8]: 11.3%
- Activity (SW-620): 22.3%

Compound: CCN(CC)c1ccc(OS(=O)(=O)c2ccc(C)cc2)c2c1C(=O)c1ccccc1C2=O
- IC50 [30]: 0.3 µM
- Activity (HepG2 [5]): 35.6%
- Activity [6]: 50%
- Activity [7]: 39.9%
- Activity [8]: 43.9%
- Activity (SW-620): 32.6%

Compound: Cc1ccc(S(=O)(=O)Oc2ccc(NCCc3ccccc3)c3c2C(=O)c2ccccc2C3=O)cc1
- Activity (HepG2 [5]): 8.3%
- Activity [6]: 27.4%
- Activity [7]: 42.5%
- Activity [8]: 13.3%
- Activity (SW-620): 49.5%
